Each structure is given as a SMILES string. Bounds are passed on as bounds.

On to `O=C(NS(=O)(=O)c1ccc(O)cc1)c1ccc(Cl)cc1Cl`, for which the melting point (commonly the temperature, or range, at which the solid turns liquid) is 155 to 157 °C. As for `C=CCCCOc1cc(OCCCCCCCC)ccc1C(=O)O`, the melting point was in the range of 67 to 68 °C. `N#CCCNC(=O)c1cncc(-c2cccc3nn(Cc4cccc(C(F)(F)F)c4)cc23)c1` displayed a melting point of 192 to 193 °C. Turning to `Cc1cc(-c2cc(C(F)F)n3nccc3n2)ccc1Cl`, the melting point was 107 °C. Next, `CCC(C)c1nn(-c2ccc(C(F)(F)F)cn2)cc1CCCO` (stereo not drawn): 72 to 73 °C; `Cc1ccc2c(c1)C=C(C(=O)O)C(C(F)(F)F)O2` (stereo not drawn): 192 to 193 °C; `CC(=O)OC(OC(C)=O)c1cc(Br)c(C(OC(C)=O)OC(C)=O)cc1Br`: 200 to 210 °C. Next, `Clc1cc(N2Cc3ccccc3C2)nc2ccccc12`: 172 to 173 °C; `COC(=O)c1cccc(-c2nnc(-c3ccccc3N)cc2CCCO)c1`: 141 °C; `CS(=O)(=O)c1ccc(-c2cnn(-c3ccc(F)cc3)c(=O)c2C2CCCCC2)cc1`: 231 to 233 °C.

Regarding `COc1ccc(NC(=O)Nc2ccc(Cl)c(Cl)c2)cc1NS(=O)(=O)c1cc(Cl)cc(Cl)c1`, the melting point lay in the range of 225 to 227 °C. Take `Cn1c(C(F)(F)F)cc(=O)n(-c2ccc(Cl)c3nc(C(C)(C)C)oc23)c1=O`: the melting point is 146 to 148 °C. Next, `O=C(O)COc1nc2ccccc2s1`: 168 to 170 °C; `O=[N+]([O-])c1ccc(Oc2ccc(Cl)cc2Cl)cc1Oc1ccc(Cl)cc1Cl`: 91 to 93 °C; `O=[N+]([O-])c1cc2c(cc1NCC(O)CO)OCO2` (stereo not drawn): 120 to 121 °C. Take `CNc1cc(S(=O)(=O)c2ccc(N)cc2)cc(C)n1`: the melting point was 126 to 127 °C.

As for `COc1ccc2cc([C@H](C)C(=O)NOCC(=O)NCCO[N+](=O)[O-])ccc2c1`, the melting point was in the range of 40 to 44 °C.

Take `CCCc1c(OCc2cccc(C(=O)OC)c2)ccc(C(C)=O)c1O`: the melting point is 141 to 143 °C. Next, `Cn1c(=O)c2c(C(=O)O)nc(O)n2c2ccccc21`: over 300 °C. Next, `O=C(NCC(=O)N1c2ccccc2N(Cc2ccccc2)C(=O)[C@H]2CCC[C@H]21)c1ccc2c(c1)OCO2` (relative stereo): 174 to 176 °C; `O=C(Cc1cc(Cl)cc(Cl)c1)NC1N=C(C2CC2)c2ccccc2N(CC(F)(F)F)C1=O` (single isomer, unassigned; (+)): 152 to 153 °C.

Molecule `Cc1cnoc1-c1ccc2c(c1)c1cc(-c3ccc(Cl)cc3Cl)c(=O)n(C)c1n2C` had a melting point of 233 to 234 °C.

Regarding `CCOC(=O)C(=CNc1ccn(Cc2ccco2)n1)C(=O)c1ccccc1`, the melting point was in the range of 75 to 77 °C. Next, `CCOC(=O)/C=C/c1cn(-c2ccc(C(F)(F)F)cc2)nc1OCc1ccc(OCc2nc(-c3ccccc3)oc2C)c(OC)c1`: 205 to 206 °C; `NCC1(O)CCN(CC2OCCO2)CC1`: 137 °C; `CCCc1ccc(S(=O)(=O)Nc2ccc3snc(NC(C)=O)c3c2)cc1`: 254 to 255 °C. Next, `Cc1oc2cc(C=O)ccc2c1C`: 73 to 74 °C; `COC(=O)c1ccc(C(=O)C2C(=O)N(C(N)=O)c3ccc(Cl)cc32)s1` (stereo not drawn): 219 to 221 °C; `Cc1c(-c2ccccc2)oc2c(C(=O)NCCCN3CCN(c4ccc(Cl)cc4)CC3)cccc2c1=O`: 200 to 204 °C. Next, `O=C(O)c1cc([N+](=O)[O-])ccc1C1SCCCS1`: 192 to 194 °C. `C=CCC1(Cc2ncn(C(c3ccccc3)(c3ccccc3)c3ccccc3)c2C)CCc2c(C)c3ccccc3n2C1=O` (stereo not drawn) showed a melting point of 83 to 85 °C.

On to `N#Cc1c(N)nc2ccccc2c1Cl`, for which the melting point came out at 210 °C. Next, `O=C1CCC(N2Cc3c(OCc4ccc(CN5CCN(C(=O)C6CC6)CC5)cc4)cccc3C2=O)C(=O)N1` (stereo not drawn): 233 to 235 °C; `Oc1cn(-c2c(Cl)cc(C(F)(F)F)cc2Cl)nc1C(F)(F)F`: 186 to 188 °C; `COc1c(Nc2ncc(Cl)c(Nc3ccccc3S(=O)(=O)N(C)C)n2)ccc2c1CCC(NCC(F)F)CC2` (stereo not drawn): 118 °C. Regarding `CN(C)C(=O)NS(=O)(=O)C=Cc1ccccc1`, the melting point was 160 to 162 °C.

Regarding `COC1(N2CCCC2)C=CC=C(c2cnc3[nH]cc(C(=O)C(C)(C)C)c3n2)C1` (stereo not drawn), the melting point lay within 245 to 256 °C. Next, `O=C(NC(=O)C(Br)CBr)Nc1ccc(Cl)c(Cl)c1` (stereo not drawn): 174 to 175 °C; `Clc1ccc(I)c(CBr)c1`: 75 to 79 °C. `Cc1ccc(S(=O)(=S)OCC2CC2)cc1` (stereo not drawn) displayed a melting point of 46 to 48 °C.

Take `CS(=O)(=O)c1ccc2cc[nH]c2c1`: the melting point is 149 to 152 °C. Next, `COc1cc(OC)cc(-c2ncoc2-c2ccc(OC(F)(F)F)c(N)c2)c1`: 119 to 120 °C; `CCC(O)(c1ccc(OCCCN2CCCCC2)cc1)c1cccc(Cl)c1` (stereo not drawn): 80 to 81 °C; `CCOC(=O)C(=O)c1csc(NC(=S)NC(=O)c2ccccc2)n1`: 155 to 157 °C. Next, `C#CCOC(=O)c1cc(-n2c(=O)cc(C)n(C)c2=O)c(F)cc1C#N`: 174 to 177 °C. Next, `C=Cc1ccc(COc2ccc(CSCCC(=O)O)cc2)cc1`: 135 to 136 °C; `O=C1CCc2cc(-n3ccnc3)ccc21`: 148 to 150 °C; `CC(=O)c1ccc(OCCCCl)c(O)c1`: 101 to 103 °C.

With `Nc1ncnc2c1c(-c1ccccc1)cn2-c1cccc(O)c1`, the melting point was 227 to 228 °C.

Turning to `CCc1nc2c(N)nc3ccccc3c2n1CC1(O)CCSCC1`, the melting point was over 250 °C. Next, `N#Cc1ccc(-c2ccoc2)cc1`: 55 to 57 °C; `CN(C)c1cc(CO)ncn1`: 137 to 139 °C; `O=C1CCCc2ncccc2N1`: 156 to 159 °C. Next, `Cn1ncnc1COc1nn2c(-c3ccccc3)nnc2c(Cl)c1N1CCCC1`: 174 to 176 °C; `O=C1Cc2c(ccc3c(CCC4CCN(Cc5ccccc5)CC4)noc23)N1`: 188 to 189 °C; `CCCC(=O)c1cnc2c(OCCCN(C)CCCc3ccccc3)cccc2c1Nc1ccccc1C`: 79 to 81 °C. Next, `COc1ccc(-c2c(Br)c(CBr)nc3sc4c(c23)CCN(Cc2ccccc2)C4)cc1`: 177 to 178 °C; `CONS(=O)(=O)c1cc(Cl)ccc1Cl`: 127 to 128 °C. On to `COC(=O)C(O)C(CC(C)C)NC(=O)C(Cc1c[nH]cn1)NC(=O)C(CC(=O)N(C)C)Cc1cccc2ccccc12` (mixture of isomers), for which the melting point was 117 to 121 °C. Next, `CN(Cc1ccc(N)cc1)C1CCN(c2ccc(N)cc2)CC1`: 123 °C; `Cc1[nH]c2ccc(CCN(CC(C)C)CC(C)C)cc2c1C(=O)OCc1ccccc1`: 134 to 135 °C. Next, `COC(=O)Cn1c(C(=O)Nc2nc(-c3cc(Br)c(OC)cc3OC)c(CCC3CCCCC3)s2)cc2ccccc21`: 110 to 114 °C. Next, `COc1ccc2c(c1)CCN1CCC(Nc3ccc(NC(C)=O)cc3)CC21` (stereo not drawn): 219 to 221 °C.

Values taken from a melting point compilation (Tetko et al.; mined from patent text by program, amines drawn as free bases though some values may be those of a salt).
